According to US7202237B2, “Pyridylether derivatives, their preparation and use” (NeuroSearch A/S, priority 1997, dated 2007):
Structures can show the parent of a compound that is named as a salt. Where two headings read alike, the source gives them in different places.

Legend:
[1] = molecular target: T1, neuronal nicotinic receptors (α4β2 subtype of nicotinic receptors) (Rattus norvegicus, UniProt P09483+P12390); test: In vitro inhibition of 3H-epibatidin binding
T1 construct: The forebrain (÷cerebellum) from a male Wistar rat (150–250 g) is homogenized; from tissue; host or cells: rat forebrain (without cerebellum) membrane homogenate
Experimental: In Vitro Inhibition of ^3H-epibatidin Binding
The high affinity binding site for ^3H-epibatidin is most certainly binding to the α4β2 subtype of nicotinic receptors. The identity of the low affinity site is still unknown; does it represent a second nicotinic receptor or a second site in the same receptor.
Tissue preparation: Preparations are performed at 0–4° C. unless otherwise indicated. The forebrain (÷cerebellum) from a male Wistar rat (150–250 g) is homogenized for 10–20 sec in 20 ml Tris, HCl (50 mM, pH 7.4) using an Ultra-Turrax homogenizer. The tissue suspension is centrifuged at 27,000×g for 10 min. The supernatant is discarded and the pellet is washed three times by centrifugation at 27,000×g for 10 min in 20 ml fresh buffer, and the final pellet is resuspended in fresh buffer (400 ml per g of original tissue) and used for binding assays.
Assay: Aliquots of 2.0 ml homogenate are added to 0.100 ml of test solution and 0.100 ml of ^3H-epibatidin (0.3 nM, final concentration), mixed and incubated for 60 min at room temperature. Non-specific binding is determined using (−)-nicotine (30 μM, final concentration). After incubation the samples are poured directly onto Whatman GF/C glass fibre filters (presoaked in 0.1% PEI for at least 20 min) under suction and immediately washed with 2×5 ml ice-cold buffer. The amount of radioactivity on the filters is determined by conventional liquid scintillation counting. Specific binding is total binding minus non-specific binding.

[2] = molecular target: nAChRs comprised of α4 and β2 subunits (Rattus norvegicus, UniProt P09483+P12390); test: In vitro inhibition of 3H-cytisine binding
Experimental: In Vitro Inhibition of ^3H-cytisine Binding
The predominant subtype with high affinity for nicotine is comprised of α4 and β2 subunits. nAChRs of the latter type can selectively be labelled by the nicotine agonist ^3H-cytisine.
Tissue Preparation: Preparations are performed at 0–4° C. unless otherwise indicated. […] The homogenate is centrifuged at 27,000×g for 10 min. The supernatant is discarded and the pellet is resuspended in fresh buffer and centrifuged a second time. The final pellet is resuspended in fresh buffer (35 ml per g of original tissue) and used for binding assays.
Assay: Aliquots of 500 μl homogenate are added to 25 μl of test solution and 25 μl of ^3H-cytisine (1 nM, final concentration), mixed and incubated for 90 min at 2° C. Non-specific binding is determined using (−)-nicotine (100 μM, final concentration). After incubation the samples are added 5 ml of ice-cold buffer and poured directly onto Whatman GF/C glass fibre filters under suction and immediately washed with 2×5 ml ice-cold buffer. The amount of radioactivity on the filters is determined by conventional liquid scintillation counting. Specific binding is total binding minus non-specific binding.

[3] = molecular target: nAChR formed by the α7 subunit isoform (Rattus norvegicus, UniProt Q05941); test: biochemical; type: binding
[4] = times that of morphine; cited from earlier work
[5] = rat forebrain homogenate, 0.3 nM 3H-epibatidin, read-out: 3H-epibatidin IC50
[6] = rat cerebral cortex homogenate, 1 nM 3H-cytisine, read-out: 3H-cytisine IC50

T1 sequence (P09483 31-630): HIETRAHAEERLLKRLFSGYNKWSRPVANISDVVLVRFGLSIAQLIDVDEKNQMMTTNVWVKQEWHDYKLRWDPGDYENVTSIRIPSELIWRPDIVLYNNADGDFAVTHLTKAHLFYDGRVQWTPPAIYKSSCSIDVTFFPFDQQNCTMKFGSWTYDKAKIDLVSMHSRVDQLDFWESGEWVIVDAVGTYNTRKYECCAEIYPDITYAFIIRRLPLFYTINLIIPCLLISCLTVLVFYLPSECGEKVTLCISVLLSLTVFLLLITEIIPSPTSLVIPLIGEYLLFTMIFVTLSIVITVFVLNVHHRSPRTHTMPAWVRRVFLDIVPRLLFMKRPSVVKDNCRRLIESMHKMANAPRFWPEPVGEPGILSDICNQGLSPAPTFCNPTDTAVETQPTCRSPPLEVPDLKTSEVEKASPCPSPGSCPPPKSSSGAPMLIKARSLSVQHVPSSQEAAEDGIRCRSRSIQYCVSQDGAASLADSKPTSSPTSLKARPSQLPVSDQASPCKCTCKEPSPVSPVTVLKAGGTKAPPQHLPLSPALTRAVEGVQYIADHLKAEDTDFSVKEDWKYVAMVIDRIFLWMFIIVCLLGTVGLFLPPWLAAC
T1 sequence (P12390 25-500): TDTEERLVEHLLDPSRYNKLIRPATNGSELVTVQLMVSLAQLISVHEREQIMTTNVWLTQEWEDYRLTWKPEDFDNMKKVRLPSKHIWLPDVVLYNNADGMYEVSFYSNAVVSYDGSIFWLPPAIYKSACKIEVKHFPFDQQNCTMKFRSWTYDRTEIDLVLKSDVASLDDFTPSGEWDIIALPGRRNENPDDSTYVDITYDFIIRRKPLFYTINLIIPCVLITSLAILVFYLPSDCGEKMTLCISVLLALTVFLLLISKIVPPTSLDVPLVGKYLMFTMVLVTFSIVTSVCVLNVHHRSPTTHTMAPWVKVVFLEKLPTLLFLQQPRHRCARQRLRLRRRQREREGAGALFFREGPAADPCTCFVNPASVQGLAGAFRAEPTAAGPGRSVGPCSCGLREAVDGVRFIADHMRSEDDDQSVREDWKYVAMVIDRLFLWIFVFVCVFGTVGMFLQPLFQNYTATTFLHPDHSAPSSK
Sequence of nAChRs comprised of α4 and β2 subunits (P09483 31-630): as the sequence (P09483 31-630) above
Sequence of nAChRs comprised of α4 and β2 subunits (P12390 25-500): as the sequence (P12390 25-500) above
Sequence of nAChR formed by the α7 subunit isoform (Q05941 23-502): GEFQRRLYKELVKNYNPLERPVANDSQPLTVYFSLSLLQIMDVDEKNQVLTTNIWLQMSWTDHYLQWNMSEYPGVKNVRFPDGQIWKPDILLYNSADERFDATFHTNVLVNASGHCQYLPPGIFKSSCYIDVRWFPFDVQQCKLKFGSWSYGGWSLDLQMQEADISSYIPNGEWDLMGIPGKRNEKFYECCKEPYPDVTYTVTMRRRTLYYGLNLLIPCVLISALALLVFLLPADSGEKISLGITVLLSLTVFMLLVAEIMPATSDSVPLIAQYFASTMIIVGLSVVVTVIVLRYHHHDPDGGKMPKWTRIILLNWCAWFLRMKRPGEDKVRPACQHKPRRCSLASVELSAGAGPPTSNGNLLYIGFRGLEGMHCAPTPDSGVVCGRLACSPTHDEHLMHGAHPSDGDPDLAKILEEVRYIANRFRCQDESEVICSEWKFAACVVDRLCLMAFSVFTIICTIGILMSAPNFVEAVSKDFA

Structure (SMILES): c1cncc(OC2CCCNCC2)c1 (racemic) (as salt: fumaric acid salt) [Compound 7b, (±)-4-Oxy-(3-pyridyl)-homopiperidine fumaric acid salt]
- melting point: 117 to 119 °C

Structure (SMILES): CN1CCC(Oc2cccnc2)C1 (racemic) [Compound 1a, (±)-1-Methyl-3-oxy-(3-pyridyl)-pyrrolidine]
- IC50 [1, 5]: 700 nM
- IC50 [2, 6]: 100 nM
- IC50 [3]: 16000 nM

Structure (SMILES): c1cncc(OC2CCNC2)c1 (racemic) [Compound 1b, (±)-3-Oxy-(3-pyridyl)-pyrrolidine]
- IC50 [1]: 410 nM
- IC50 [2]: 70 nM
- IC50 ([3]; read-out: 3H-α-bungarotoxin IC50): > 30000 nM

Structure (SMILES): CN1CCCC(Oc2cccnc2)C1 (racemic) [Compound 3a, (±)-1-Methyl-3-oxy-(3-pyridyl)-piperidine]
- IC50 [1, 5]: 720 nM
- IC50 [2, 6]: 190 nM
- IC50 [3]: 19000 nM

Structure (SMILES): c1cncc(OC2CCCNCC2)c1 (racemic) [Compound 7b, (±)-4-Oxy-(3-pyridyl)-homopiperidine fumaric acid salt]
- IC50 [1, 5]: 300 nM
- IC50 [2, 6]: 60 nM
- IC50 [3]: 20000 nM

Structure (SMILES): Clc1ccc(C2CC3CCC2N3)cn1 (centres unmarked) [Epibatidine]
- analgesic potency relative to morphine [4]: ~500 times
